Where a name gives a salt, the structure may show the parent alone. Read-outs that look alike come from different tables or passages of the source. Blank lines part the entries; values can stand above or below the compound they belong to.
Key:
NO synthase = assay: Assay Protocol for NOS activity: % inhibition at 50 uM (formation of L-[3H]citrulline from L-[3H]arginine); format: biochemical
Protocol: (§1) Assay Protocol for NOS activity
(§2) NOS activity is measured as the formation of L-[2,3,4,5-^3 H]Citrullinefrom L-[2,3,4,5-^3 H]Arginine. The incubation buffer (100 μL) contained; 100 mM TES, pH 7.5, 5 μM FAD, 5 μM FMN, 10 μM BH4, 0.5 mM NADPH, 0.5 mM DTT, 0.5 mg/mL BSA, 2 mM CaCl2, 10 μg/mL calmodulin (bovine), 1 μM L-Arg, 0.2 μCi L-[2,3,4,5-^3 H]Arg, and the inhibitor in aqueous DMSO (max. 5%). The reaction is initiated by addition of enzyme. Incubations are performed at room temperature for 30 minutes and stopped by the addition of an equal volume of quenching buffer consisting of 200 mM sodium citrate, pH 2.2, 0.02% sodium azide. Reaction products are separated by passing through a cation exchange resin and quantitated as cpm by scintillation counting.

iNOS = iNOS (Homo sapiens, UniProt P35228); assay: NOS activity assay, iNOS (L-[3H]citrulline formation); format: biochemical
Protocol: as §1, §2

ecNOS = ecNOS (Homo sapiens, UniProt P29474); assay: NOS activity assay, ecNOS (L-[3H]citrulline formation); format: biochemical
Protocol: as §1, §2

ncNOS = ncNOS (Homo sapiens, UniProt P29475); assay: biochemical
Chain of ncNOS (P29475 whole entry): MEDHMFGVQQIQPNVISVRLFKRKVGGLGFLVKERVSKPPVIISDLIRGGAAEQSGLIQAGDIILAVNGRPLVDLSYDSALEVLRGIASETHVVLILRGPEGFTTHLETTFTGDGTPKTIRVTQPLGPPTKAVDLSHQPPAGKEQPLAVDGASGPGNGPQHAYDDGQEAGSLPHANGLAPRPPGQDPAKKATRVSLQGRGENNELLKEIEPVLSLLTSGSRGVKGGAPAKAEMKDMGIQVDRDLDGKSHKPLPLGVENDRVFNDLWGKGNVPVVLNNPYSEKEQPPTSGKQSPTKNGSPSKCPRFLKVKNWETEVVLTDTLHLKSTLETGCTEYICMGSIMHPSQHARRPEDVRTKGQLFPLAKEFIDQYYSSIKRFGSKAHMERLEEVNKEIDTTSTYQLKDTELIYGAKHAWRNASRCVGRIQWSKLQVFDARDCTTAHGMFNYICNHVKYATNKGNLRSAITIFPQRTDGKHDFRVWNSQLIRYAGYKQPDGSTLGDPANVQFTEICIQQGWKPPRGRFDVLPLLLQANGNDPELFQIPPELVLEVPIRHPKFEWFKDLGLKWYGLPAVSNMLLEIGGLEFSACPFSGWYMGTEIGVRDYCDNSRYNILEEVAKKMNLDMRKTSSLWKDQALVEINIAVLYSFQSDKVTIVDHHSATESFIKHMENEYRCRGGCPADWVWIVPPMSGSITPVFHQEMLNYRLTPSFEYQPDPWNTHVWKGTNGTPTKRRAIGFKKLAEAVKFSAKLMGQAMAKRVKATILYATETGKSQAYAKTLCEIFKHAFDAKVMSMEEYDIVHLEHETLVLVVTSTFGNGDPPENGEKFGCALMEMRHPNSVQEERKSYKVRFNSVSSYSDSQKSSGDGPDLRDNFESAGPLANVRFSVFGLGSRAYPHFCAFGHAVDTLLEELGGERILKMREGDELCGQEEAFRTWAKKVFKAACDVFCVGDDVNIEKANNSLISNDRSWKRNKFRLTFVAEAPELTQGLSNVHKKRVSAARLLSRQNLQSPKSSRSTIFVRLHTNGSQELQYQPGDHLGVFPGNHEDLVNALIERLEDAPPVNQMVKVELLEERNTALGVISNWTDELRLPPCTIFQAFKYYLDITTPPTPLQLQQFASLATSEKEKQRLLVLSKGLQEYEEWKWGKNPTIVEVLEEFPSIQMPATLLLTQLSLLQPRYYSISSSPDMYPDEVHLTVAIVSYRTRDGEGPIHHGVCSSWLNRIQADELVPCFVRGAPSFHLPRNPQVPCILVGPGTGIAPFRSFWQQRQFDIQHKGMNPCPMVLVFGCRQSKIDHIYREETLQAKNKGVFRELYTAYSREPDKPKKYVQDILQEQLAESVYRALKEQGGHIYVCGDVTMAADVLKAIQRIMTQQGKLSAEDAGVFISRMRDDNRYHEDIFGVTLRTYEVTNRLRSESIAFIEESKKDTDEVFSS

SMILES: CNC1=NCCCCC1 [Table 2: CH3]
% inhibition (NO synthase; Table 2): 3%

SMILES: CC1CCC(=N)N1 (centres unmarked) [Table 1: CH3, H, H]
% inhibition (NO synthase; Table 1): 98%

SMILES: N=C1CCCN1 [Table 1: H, H, H]
% inhibition (NO synthase; Table 1): 90%

SMILES: N=C1CCCCCCCN1
% inhibition (NO synthase; Table 3): 100%

SMILES: N=C1CCCN1 [drawing 15]
% inhibition (NO synthase; Table 3): 90%

SMILES: N=C1CCCCN1 [drawing 16]
% inhibition (NO synthase; Table 3): 100%

SMILES: N=C1CCCCCCN1
% inhibition (NO synthase; Table 3): 100%

SMILES: CCNC1=NCCCCC1 [Table 2: CH2 CH3]
% inhibition (NO synthase; Table 2): 55%

IC50 (iNOS; Table 5, read-out: IC50 iNOS): ≤ 10 µM | IC50 (ecNOS; Table 5, read-out: IC50 ecNOS): > 50 µM | IC50 (ncNOS; Table 5, read-out: IC50 ncNOS): ≤ 50 µM
SMILES: COC(=O)C1CNC(=N)CC1C (mixture of isomers) [Table 5: CH, H, CH3, CO2CH3, H, H, H, cis/trans-2-Imino-4-methyl-piperidine-5-carboxylic acid, methyl ester, acetic acid salt]

IC50 (iNOS; Table 4, read-out: IC50 iNOS): ≤ 10 µM | IC50 (ecNOS; Table 4, read-out: IC50 ecNOS): ≤ 50 µM | IC50 (ncNOS; Table 4, read-out: IC50 ncNOS): ≤ 10 µM
SMILES: CC1(C)CCC(=N)N1 [Table 4: H, H, (CH3)2, H, H, 2-Imino-5,5-dimethylpyrrolidine hydrochloride]

IC50 (iNOS; Table 5, read-out: IC50 iNOS): ≤ 10 µM | IC50 (ecNOS; Table 5, read-out: IC50 ecNOS): ≤ 50 µM | IC50 (ncNOS; Table 5, read-out: IC50 ncNOS): ≤ 10 µM
SMILES: NC1=NCCc2ccccc21 [Table 5: C, (CH)4, H, H, H, H]

SMILES: N=C1CCCCCN1
% inhibition (NO synthase; Table 3): 96%

IC50 (iNOS; Table 4, read-out: IC50 iNOS): ≤ 10 µM | IC50 (ecNOS; Table 4, read-out: IC50 ecNOS): > 50 µM | IC50 (ncNOS; Table 4, read-out: IC50 ncNOS): < 10 µM
SMILES: N=C(N)CCNC(=O)C1CCC(=N)N1 (centres unmarked)

IC50 (iNOS; Table 5, read-out: IC50 iNOS): ≤ 1 µM | IC50 (ecNOS; Table 5, read-out: IC50 ecNOS): ≤ 1 µM | IC50 (ncNOS; Table 5, read-out: IC50 ncNOS): ≤ 1 µM
SMILES: CO[C@@H]1CNC(=N)C[C@@H]1C [Table 5: CH, H, (S)CH3, (S)OCH3, H, H, H, hydrochloride]

IC50 (iNOS): ≤ 1 µM | IC50 (ecNOS): ≤ 1 µM | IC50 (ncNOS): ≤ 1 µM
SMILES: C[C@@H]1CC(=N)N[C@H](C)C1 (relative stereo) [Table 5: CH, H, CH3, H, CH3, H, H, cis-4,6-Dimethyl-2-imino-piperidine, acetic acid salt]

IC50 (iNOS; Table 5, read-out: IC50 iNOS): > 50 µM | IC50 (ecNOS; Table 5, read-out: IC50 ecNOS): > 50 µM | IC50 (ncNOS; Table 5, read-out: IC50 ncNOS): > 50 µM
SMILES: CC1CC(=N)NCC1C1CCCCC1 (mixture of isomers) [cis/trans-5-Cyclohexyl-2-imino-4-methyl-piperidine, acetic acid salt]

IC50 (iNOS; Table 5, read-out: IC50 iNOS): ≤ 1 µM | IC50 (ecNOS; Table 5, read-out: IC50 ecNOS): ≤ 1 µM | IC50 (ncNOS; Table 5, read-out: IC50 ncNOS): ≤ 1 µM
SMILES: CC1CNC(=N)CC1C (centres unmarked) [Table 5: CH, H, CH3, CH3, H, H, H]

IC50 (iNOS; Table 5, read-out: IC50 iNOS): ≤ 50 µM | IC50 (ecNOS; Table 5, read-out: IC50 ecNOS): > 50 µM | IC50 (ncNOS; Table 5, read-out: IC50 ncNOS): ≤ 50 µM
SMILES: N=C1CNCCN1 [Table 5: N, H, H, H, H, H, H, 2-Iminopiperazine hydrochloride]

IC50 (iNOS; Table 5, read-out: IC50 iNOS): ≤ 10 µM | IC50 (ecNOS; Table 5, read-out: IC50 ecNOS): ≤ 50 µM | IC50 (ncNOS; Table 5, read-out: IC50 ncNOS): ≤ 10 µM
SMILES: CC1CC(=N)NCC1C(=O)O (mixture of isomers) [Table 5: CH, H, CH3, CO2H, H, H, H, cis/trans-2-Imino-4-methyl-piperidine-5-carboxylic acid, acetic acid salt]

SMILES: C1CCN=C(NC2CCCCC2)CC1 [Table 2: cyclohexyl]
% inhibition (NO synthase; Table 2): 8%

SMILES: CC1CN=C(N)C1 (centres unmarked) [Table 4: H, CH3, H, H, H, 2-Imino-4-methylpyrrolidine hydrochloride]
IC50 (iNOS): ≤ 10 µM | IC50 (ecNOS): ≤ 10 µM | IC50 (ncNOS): ≤ 1 µM

IC50 (iNOS; Table 5, read-out: IC50 iNOS): ≤ 10 µM | IC50 (ecNOS; Table 5, read-out: IC50 ecNOS): ≤ 50 µM | IC50 (ncNOS; Table 5, read-out: IC50 ncNOS): ≤ 10 µM
SMILES: CC1(C)CCC(=N)NC1 [Table 5: CH2, H, H, (CH3)2, H, H, H, 2-Imino-5,5-dimethylpiperidine hydrochloride]

IC50 (iNOS; Table 4, read-out: IC50 iNOS): ≤ 50 µM | IC50 (ecNOS; Table 4, read-out: IC50 ecNOS): ≤ 50 µM | IC50 (ncNOS; Table 4, read-out: IC50 ncNOS): ≤ 1 µM
SMILES: N=C1NCCC1S (centres unmarked) [Table 4: SH, H, H, H, H]

SMILES: c1ccc(CNC2=NCCCCC2)cc1 [Table 2: CH2 -phenyl]
% inhibition (NO synthase; Table 2): 3%

IC50 (iNOS; Table 5, read-out: IC50 iNOS): ≤ 50 µM | IC50 (ecNOS; Table 5, read-out: IC50 ecNOS): ≤ 50 µM | IC50 (ncNOS; Table 5, read-out: IC50 ncNOS): ≤ 1 µM
SMILES: CC1CNC(=N)C(C)C1 (centres unmarked) [Table 5: CH2, CH3, H, CH3, H, H, H, 2-Imino-3,5-dimethylpiperidine hydrochloride]

IC50 (iNOS; Table 5, read-out: IC50 iNOS): ≤ 1 µM | IC50 (ecNOS; Table 5, read-out: IC50 ecNOS): ≤ 10 µM | IC50 (ncNOS; Table 5, read-out: IC50 ncNOS): ≤ 1 µM
SMILES: C[C@H]1CC(=N)NC[C@H]1O [Table 5: CH, H, (S)CH3, (S)OH, H, H, H, 2-Imino-5(S)-hydroxy-4(S)-methyl-piperidine, hydrochloride]

IC50 (iNOS; Table 5, read-out: IC50 iNOS): ≤ 1 µM | IC50 (ecNOS; Table 5, read-out: IC50 ecNOS): ≤ 50 µM | IC50 (ncNOS; Table 5, read-out: IC50 ncNOS): ≤ 1 µM
SMILES: NC1=N[C@H]2CCCC[C@H]2CC1 (relative stereo) [Table 5: CH2, H, H, cis-(CH2)4, H, H, cis-Decahydro-2-iminoquinoline hydrochloride]

IC50 (iNOS; Table 4, read-out: IC50 iNOS): ≤ 50 µM | IC50 (ecNOS; Table 4, read-out: IC50 ecNOS): > 50 µM | IC50 (ncNOS; Table 4, read-out: IC50 ncNOS): ≤ 50 µM
SMILES: CCCC1CC(N)=NC1C (centres unmarked) [Table 4: H, n-C3H7, CH3, H, H, 2-Imino-5-methyl-4-propylpyrrolidine hydrochloride]

IC50 (iNOS; Table 4, read-out: IC50 iNOS): > 50 µM | IC50 (ecNOS; Table 4, read-out: IC50 ecNOS): > 50 µM | IC50 (ncNOS; Table 4, read-out: IC50 ncNOS): > 50 µM
SMILES: Oc1ccc(CCNC2=NCCC2)cc1O [Table 4: H, H, H, H, C2 H4 Ph-3,4-(OH)2, 1-Aza-2-((3,4-dihydroxyphenyl)ethyl)amino-1-cyclopentene hydrochloride]

IC50 (iNOS; Table 4, read-out: IC50 iNOS): ≤ 10 µM | IC50 (ecNOS; Table 4, read-out: IC50 ecNOS): ≤ 10 µM | IC50 (ncNOS; Table 4, read-out: IC50 ncNOS): ≤ 1 µM
SMILES: CC1CN=C(N)C1C (centres unmarked) [Table 4: CH3, CH3, H, H, H, 2-Imino-3,4-dimethylpyrrolidine hydrochloride]

Source: patent US5629322A, “Cyclic amidine analogs as inhibitors of nitric oxide synthase” (priority 1995, dated 1997)
